# Target: T1, endothelial lipase (EL) (Homo sapiens, UniProt Q9Y5X9)
# T1 construct: transformed by RAGE technology (Athersys) to overexpress endogenous EL; endogenous in cells; conditioned medium used as the enzyme source
# T1 sequence (Q9Y5X9 21-500): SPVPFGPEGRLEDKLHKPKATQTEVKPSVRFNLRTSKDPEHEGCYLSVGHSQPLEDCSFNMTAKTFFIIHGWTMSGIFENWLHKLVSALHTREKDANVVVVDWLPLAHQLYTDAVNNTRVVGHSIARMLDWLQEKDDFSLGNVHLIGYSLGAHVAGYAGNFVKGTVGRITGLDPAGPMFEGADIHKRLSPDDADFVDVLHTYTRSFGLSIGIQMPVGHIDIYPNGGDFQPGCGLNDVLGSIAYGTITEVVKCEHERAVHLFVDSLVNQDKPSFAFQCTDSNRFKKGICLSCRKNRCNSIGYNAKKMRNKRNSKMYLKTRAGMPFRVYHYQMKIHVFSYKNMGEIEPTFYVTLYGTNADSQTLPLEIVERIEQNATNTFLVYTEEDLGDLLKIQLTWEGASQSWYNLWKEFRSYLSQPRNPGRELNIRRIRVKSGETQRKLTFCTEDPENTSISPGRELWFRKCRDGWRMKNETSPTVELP
# Assay: Endothelial lipase (EL) enzymatic assay with fluorescent substrate A10070 in DMPG vesicles
# Format: biochemical
# Details: conditioned media from HT-1080 cells overexpressing endogenous EL; 20 min preincubation at 37° C.; FRET substrate A10070; read-out: HLE_EL_CRC IC50
# Description: Endothelial lipase activity was measured using a fluorescent substrate, A10070, (Invitrogen, CA) doped into an artificial vesicle containing DMPG (Avanti Polar Lipids) as the excipient. Vesicles were prepared by combining 285 uL of 1 mM DMPG in a 1:1 mixture of MeOH and CHCl3 with 15 uL of 1 mM A10070 in a 1:1 mixture of MeOH and CHCl3. The mixture was dried under nitrogen and resuspended in 150 uL of 50 mM HEPES pH 8.0 buffer containing 100 mM NaCl and 0.2 mM EDTA. The sample was allowed to sit at rt for 15 min and then was sonicated 3×4 mins on ice with a Branson Sonicator using duty cycle 1. This preparation provides vesicles with a mole fraction of 0.05 for the FRET substrate.
# The enzymatic assay was measured using white, opaque 96-well half area plates. Each well contained 60 uL of assay buffer (50 mM HEPES pH 8.0, 50 mM NaCl and 1 mM CaCl2) and 2 ul of a DMSO solution containing compound of interest. Conditioned media obtained from HT-1080 cells, which were transformed by RAGE technology (Athersys) to overexpress endogenous EL, was added and the reaction was allowed to incubate for 20 min at 37° C. with gentle agitation. The reaction was started by the addition of 20 uL of a 1:4 dilution of vesicles. The final total reaction volume was 100 uL. The reaction rates were measured on a Gemini plate reader with an excitation wavelength of 488 nm and a emission of 530 nm. Readings were taken every 20 seconds for 10 min with agitation between each reading. The slope of the linear portion of the readout was used to calculate the rate of the reaction.
row,SMILES,IC50 [nM]
1,"Cn1c(=O)c(O)c(C(=O)NCc2csc(-c3ccccc3)n2)c2ccccc21 [Example 90, 3-hydroxy-1-methyl-2-oxo-N-((2-phenylthiazol-4-yl)methyl)-1,2-dihydroquinoline-4-carboxamide]",83
2,"COc1ccccc1OCCCNC(=O)c1c(O)c(=O)n(C)c2ccccc12 [Example 147, 3-hydroxy-N-(3-(2-methoxyphenoxy)propyl)-1-methyl-2-oxo-1,2-dihydroquinoline-4-carboxamide]",49
3,"C[C@@H](NC(=O)c1c(O)c(=O)n(C)c2ccccc12)c1cccc(-c2ccccc2)c1 [Example 64, (R)-N-(1-(biphenyl-3-yl)ethyl)-3-hydroxy-1-methyl-2-oxo-1,2-dihydroquinoline-4-carboxamide]",64
4,"Cn1c(=O)c(O)c(C(=O)NCc2cccc(-n3cccc3)c2)c2ccccc21 [Example 172, N-(3-(1H-pyrrol-1-yl)benzyl)-3-hydroxy-1-methyl-2-oxo-1,2-dihydroquinoline-4-carboxamide]",10
5,"Cn1c(=O)c(O)c(C(=O)NC(Cc2ccccc2)c2ccccc2)c2ccccc21 (stereo not shown) [Example 155, N-(1,2-diphenylethyl)-3-hydroxy-1-methyl-2-oxo-1,2-dihydroquinoline-4-carboxamide]",3120
6,"Cn1c(=O)c(O)c(C(=O)NCCCOc2ccc(-c3ccccc3)cc2)c2ccccc21 [Example 133, N-(3-(biphenyl-4-yloxy)propyl)-3-hydroxy-1-methyl-2-oxo-1,2-dihydroquinoline-4-carboxamide]",10
7,"COC[C@H](Cc1ccccc1)NC(=O)c1c(O)c(=O)n(C)c2ccccc12 [Example 96, (S)-3-hydroxy-N-(1-methoxy-3-phenylpropan-2-yl)-1-methyl-2-oxo-1,2-dihydroquinoline-4-carboxamide]",8530
8,"Cn1c(=O)c(O)c(C(=O)NCc2ccccc2N2CCCC2)c2ccccc21 [Example 109, 3-hydroxy-1-methyl-2-oxo-N-(2-(pyrrolidin-1-yl)benzyl)-1,2-dihydroquinoline-4-carboxamide]",2910
9,"Cn1c(=O)c(O)c(C(=O)NCc2ccccc2N2CCC(CO)CC2)c2ccccc21 [Example 141, 3-hydroxy-N-(2-(4-(hydroxymethyl)piperidin-1-yl)benzyl)-1-methyl-2-oxo-1,2-dihydroquinoline-4-carboxamide]",1700
10,"Cn1c(=O)c(O)c(C(=O)NCCc2ccc(-c3ccc(F)cc3)cc2)c2ccccc21 [Example 151, N-(2-(4′-fluorobiphenyl-4-yl)ethyl)-3-hydroxy-1-methyl-2-oxo-1,2-dihydroquinoline-4-carboxamide]",75
11,"Cn1c(=O)c(O)c(C(=O)NCCCN2CCCC2=O)c2ccccc21 [Example 103, 3-hydroxy-1-methyl-2-oxo-N-(3-(2-oxopyrrolidin-1-yl)propyl)-1,2-dihydroquinoline-4-carboxamide]",9360
12,"Cn1c(=O)c(O)c(C(=O)NCc2nc3ccccc3s2)c2ccccc21 [Example 107, N-(benzo[d]thiazol-2-ylmethyl)-3-hydroxy-1-methyl-2-oxo-1,2-dihydroquinoline-4-carboxamide]",11100

# Now from value to compound:
row,IC50 [nM],SMILES
1,96,"O=C(NCc1cccc(-c2ccc(Cl)cc2)c1)c1c(O)c(=O)[nH]c2ccc(OC(F)(F)F)cc12 [Example 42, N-((4′-chlorobiphenyl-3-yl)methyl)-3-hydroxy-2-oxo-6-(trifluoromethoxy)-1,2-dihydroquinoline-4-carboxamide]"
2,25,"O=C(NCC1CN(S(=O)(=O)c2ccc(Cl)c(Cl)c2)C1)c1c(O)c(=O)[nH]c2ccc(OC(F)(F)F)cc12 [Example 55, N-((1-(3,4-dichlorophenylsulfonyl)azetidin-3-yl)methyl)-3-hydroxy-2-oxo-6-(trifluoromethoxy)-1,2-dihydroquinoline-4-carboxamide]"
3,35,"Cn1c(=O)c(O)c(C(=O)NCCCc2ccccc2Cl)c2ccccc21 [Example 27, N-(3-(2-chlorophenyl)propyl)-3-hydroxy-1-methyl-2-oxo-1,2-dihydroquinoline-4-carboxamide]"
4,37,"Cn1c(=O)c(O)c(C(=O)NCc2cccc(OC(F)(F)F)c2)c2ccccc21 [Example 86, 3-hydroxy-1-methyl-2-oxo-N-(3-(trifluoromethoxy)benzyl)-1,2-dihydroquinoline-4-carboxamide]"
5,91,"Cn1c(=O)c(O)c(C(=O)NCCOc2ccc(Cl)cc2)c2ccccc21 [Example 26, N-(2-(4-chlorophenoxy)ethyl)-3-hydroxy-1-methyl-2-oxo-1,2-dihydroquinoline-4-carboxamide]"
6,10,"Cn1c(=O)c(O)c(C(=O)NCCCc2ccc(Cl)c(Cl)c2)c2cc(Cl)ccc21 [Example 3, 6-Chloro-N-(3-(3,4-dichlorophenyl)propyl)-3-hydroxy-1-methyl-2-oxo-1,2-dihydroquinoline-4-carboxamide]"
7,40,"O=C(NCCCOc1c(Cl)cccc1Cl)c1c(O)c(=O)[nH]c2ccc(OC(F)(F)F)cc12 [Example 51, N-(3-(2,6-dichlorophenoxy)propyl)-3-hydroxy-2-oxo-6-(trifluoromethoxy)-1,2-dihydroquinoline-4-carboxamide]"
8,100,"Cn1c(=O)c(O)c(C(=O)NCc2ccc(C(F)(F)F)cc2)c2ccccc21 [Example 105, 3-hydroxy-1-methyl-2-oxo-N-(4-(trifluoromethyl)benzyl)-1,2-dihydroquinoline-4-carboxamide]"
9,12,"O=C(NCCCOc1ccccc1C(F)(F)F)c1c(O)c(=O)[nH]c2ccc(OC(F)(F)F)cc12 [Example 50, 3-hydroxy-2-oxo-6-(trifluoromethoxy)-N-(3-(2-(trifluoromethyl)phenoxy)propyl)-1,2-dihydroquinoline-4-carboxamide]"
10,11,"O=C(NCCCc1ccc(Cl)c(Cl)c1)c1c(O)c(=O)[nH]c2ccccc12 [Example 5, N-(3-(3,4-dichlorophenyl)propyl)-3-hydroxy-2-oxo-1,2-dihydroquinoline-4-carboxamide]"
11,13,"Cn1c(=O)c(O)c(C(=O)NCCCc2ccc(Cl)cc2Cl)c2ccccc21 [Example 2, N-(3-(2,4-Dichlorophenyl)propyl)-3-hydroxy-1-methyl-2-oxo-1,2-dihydroquinoline-4-carboxamide]"
12,84,"Cn1c(=O)c(O)c(C(=O)NCCc2ccc(C(F)(F)F)cc2)c2ccccc21 [Example 92, 3-hydroxy-1-methyl-2-oxo-N-(4-(trifluoromethyl)phenethyl)-1,2-dihydroquinoline-4-carboxamide]"
13,10,"Cn1c(=O)c(O)c(C(=O)NCCCc2ccc(Cl)c(Cl)c2)c2ccccc21 [Example 1, N-(3-(3,4-dichlorophenyl)propyl)-3-hydroxy-1-methyl-2-oxo-1,2-dihydroquinoline-4-carboxamide]"
14,35,"O=C(NCCCc1ccc(Cl)cc1Cl)c1c(O)c(=O)[nH]c2ccc(OC(F)(F)F)cc12 [Example 28, N-(3-(2,4-dichlorophenyl)propyl)-3-hydroxy-2-oxo-6-(trifluoromethoxy)-1,2-dihydroquinoline-4-carboxamide]"
15,43,"Cn1c(=O)c(O)c(C(=O)NCc2ccc(OC(F)(F)F)cc2)c2ccccc21 [Example 85, 3-hydroxy-1-methyl-2-oxo-N-(4-(trifluoromethoxy)benzyl)-1,2-dihydroquinoline-4-carboxamide]"
16,70,"O=C(NCCCc1c(Cl)cccc1Cl)c1c(O)c(=O)[nH]c2ccc(OC(F)(F)F)cc12 [Example 43, N-(3-(2,6-dichlorophenyl)propyl)-3-hydroxy-2-oxo-6-(trifluoromethoxy)-1,2-dihydroquinoline-4-carboxamide]"

# — patent publication US8946430B2, “Quinolinone carboxamide inhibitors of endothelial lipase” (Bristol-Myers Squibb Company, priority 2011, dated 2015)
